How the values were obtained:
CYP24 = biological target: T1, CYP24 (Homo sapiens, UniProt Q07973); assay: CYP24 enzyme assay (V79-CYP24 cells, 3H-1α,25(OH)2D3 substrate); type: cell-based; settings: substrate 20 nM, 2 hours, read-out: IC50 in the inhibition of CYP24
T1 construct: expressed in transfected cells; host or cells: V79-CYP24 cells (V79 = Chinese hamster lung fibroblasts, own knowledge; kept under hygromycin selection)
T1 sequence (Q07973 36-514): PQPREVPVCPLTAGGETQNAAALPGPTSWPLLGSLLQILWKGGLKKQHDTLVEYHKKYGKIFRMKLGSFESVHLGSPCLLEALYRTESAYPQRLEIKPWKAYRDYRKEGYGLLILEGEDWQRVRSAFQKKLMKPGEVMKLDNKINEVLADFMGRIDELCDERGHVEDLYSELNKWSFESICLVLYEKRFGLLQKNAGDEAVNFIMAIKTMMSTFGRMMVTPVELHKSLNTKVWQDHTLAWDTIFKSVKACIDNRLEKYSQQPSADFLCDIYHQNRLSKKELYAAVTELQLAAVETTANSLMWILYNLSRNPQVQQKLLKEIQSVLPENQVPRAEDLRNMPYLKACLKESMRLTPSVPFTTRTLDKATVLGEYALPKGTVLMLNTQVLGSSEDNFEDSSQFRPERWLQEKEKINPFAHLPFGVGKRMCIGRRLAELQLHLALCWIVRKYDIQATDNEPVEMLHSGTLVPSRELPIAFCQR
Protocol: (i) Material and Reagents:
Substrates (1 mM) reconstituted in isopropanol
1. Preparation of Cell Suspension • On the day of the assay, washed the monolayer of V79-CYP24 cells once with 1×PBS buffer and then trypsinized for 5 min at room temperature (approx. 22° C.). Added 1×PBS. Collected cells into tube, centrifuged cells (500×g, 5 min) and resuspended in DMEM+1% BSA media. Counted cells and adjusted density to 2 million/1 mL.
2. Cell Plating • Added 80 μl of cell suspension to appropriately labeled wells of a 96-well plate. Incubated plate for 45 minutes at 37° C. in a humidified atmosphere containing 5% CO2.
3. Compound Addition • Added 10 μl of inhibitor (10^−6 to 10^−10 M) and then after 35-40 min added 10 μl of substrate [^3H-1β]-1α,25(OH)2D3 (20 nM) for 2 hours at 37° C. in a humidified atmosphere containing 5% CO2. Both inhibitor and substrate were prepared in DMEM with 1% BSA media.
4. Lipid Extraction and Counting • Added 250 μl of methanol to stop the reaction and mixed. Added […] of dichloromethane, covered block and vortexed. Added […] of dichloromethane again, added […] of saturated KCl and vortexed. Centrifuged at 3000 rpm for 30 min. Triplicate 100 μl aliquots of aqueous fraction were mixed with 200 μl of scintillation fluid and the radioactivity was measured using a scintillation counter. All values were normalized for background. (iii) Results: • 1. […] (iv) Reference: 1. PCT Patent Application Serial No. PCT/CA03/00620

CYP24 mRNA = assay: CYP24 transcriptional activation assay in U-937 cells (real time PCR); type: cell-based, human; settings: six hours, normalized to GAPDH, 100 nM calcitriol set to 100%
Protocol: 1α,25(OH)2D3 1 mM reconstituted in isopropanol
• Sodium pyruvate • Non-essential amino acids • HEPES • 10% fetal bovine serum Phorbol 12-myristate 13-acetate (PMA) 24-well plate Isopropanol TRIzol® reagent (Invitrogen) Chloroform Ethanol Diethylpyrocarbonate treated dH2O Thermoscript™ RT-PCR System kit (Invitrogen) Human CYP24 TaqMan® Probe (Applied Biosystems Inc) Human GAPDH TaqMan® Probe (Applied Biosystems Inc) TaqMan® Universal Master Mix Probe (Applied Biosystems Inc) (ii) Procedure:
1. Cell Culture, Stimulation and Plating • Cultured U-937 cells in 4+RPMI media to a level of ≈80% confluence. Pelleted cells by centrifugation and resuspended to a concentration of 5×10^5 cells per 1 ml media. Treated U-937 cells with a final concentration of PMA of 20 ng/ml. To each well, of a 24-well plate, added 1 ml of cell suspension and incubated overnight at 37° C., in a humidified atmosphere containing 5% CO2, for adherence of cells to the wells.
2. Cell Treatment and TRIzol® Addition • Changed the media with 1 ml of fresh 4+RPMI media. Added 1 μl of the working solutions of 1, 10, and 100 μM of the compound being tested, in triplicate. Added 1 μl of isopropanol as a control, in triplicate. Incubated the cells for six hours at 37° C., in a humidified atmosphere containing 5% CO2, aspirated off the media and then added 1 ml of TRIzol® reagent. Transferred TRIzol® with cell lysate to a 1.7 ml microcentrifuge tube and stored at −80° C.
3. […] Determined the concentration of RNA using a spectrophotometer to measure the optical density of each sample, at a wavelength of 260 nm. […]
4. CYP24/GAPDH Real Time PCR • Determined the amount of CYP24 and GAPDH mRNA present in each sample using commercial TaqMan® probes, from Applied Biosystems Inc. (Foster City, Calif.). Detected both genes in the same 20 μl reaction, using an ABI PRISM 96-well optical reaction plate and cycle 50 times using an ABI Prism 7000 Sequence Detection System® (ABI). […]

IC50 (CYP24): 20.7 nM
SMILES: C=C1/C(=C\C=C2/CCC[C@]3(C)C([C@H](C)C/C=C/C(=NOC)C(C)(C)C)=CC[C@@H]23)C[C@@H](O)C[C@@H]1O [(20R)-I(e)]
CYP24 mRNA induction, activity as % of that for calcitriol at 100 nM (CYP24 mRNA): 65%

Reference: patent US8906888B2, “Low-calcemic 16,23-diene 25-oxime analogs of 1α,25-dihydroxy vitamin D3” (Cytochroma Inc., priority 2005, dated 2014)
